In experiment [1] the test system is coronary arteries. The settings on record: for EC50: read-out: estimated ET1 EC50, responsive ovx monkeys; for coronary vasospasm on IC injection (no mechanical injury): serotonin 6.7 or 200 μmol/liter alone, U46619 6.7 to 2,000 nmol/liter alone, AII up to 200 nmol/liter, combination 6.7 μmol/liter serotonin and 67 nmol/liter U46619, triple combination with ET1.

Experiment [2] has as its system coronary arteries. As to the kind of experiment: Mechanical injury coronary vasospasm protocol (Protocol 2). The class given is in vivo, rhesus monkeys (Macaca mulatta). The note with it: for Spasms/N: number of animals with vasospasm / number of animals; for ED50 (-log mol/liter): syringe concentration of the named vasoconstrictor causing 50% reduction of diameter from control, combined stimuli with 100 μmol/liter serotonin. The text has this: A separate mechanical injury, Protocol 2, was used in three additional monkeys (one male, two ovx). The injury step of Protocol 2, was deliberate mechanical stretching of the LAD or left main coronary artery with a 5F catheter.
In Protocol 2, steps 1-5 were the same as in Protocol 1. The remaining steps were as follows:
7. IC injection of angiotensin II (sequential doses to 10 μmol/liter);
8. Injury by stretching the coronary artery with a 5F catheter;
9. IC injection of serotonin (sequential doses to 1 mmol/liter);
10. IC injection 15 minutes later with 1 or 10 μmol/liter nitrendipine or Ro 40-5967 (mibefradil);
11. IC injection of […] (sequential doses to 10 μmol/liter); and
12. IC injection 15 minutes later with 1 or 10 μmol/liter nitrendipine or Ro 40-5967.
Putative coronary vasospasm stimuli were judged primarily by actions on large coronary artery diameters, analyzed as diameter of the most proximal focus of vasospasm at end-diastole from video-taped images recorded at 30 frames/s. We used the image analysis program Image Pro to measure the diameters from single frames acquired with an Imagraph frame grabber in a Pentium computer. We used the 3F catheter tip radio-opaque marker ring (1.0 mm) for calibration and determined minimal and maximal diameters just distal to the constriction. All responses to interventions were also X-ray imaged immediately (15 to 30 s after injection) and at exactly 3 minutes (and 15 minutes if there was vasospasm) after injection.

Experiment [3] deals with coronary artery vascular muscle cells (VMC). As to the kind of experiment: Subcellular Ca2+ and PKC localization and contraction of coronary VMC stimulated with serotonin plus U46619. Type of experiment: cell-based, rhesus monkeys. From the text: Single VMCs from the left anterior descending, circumflex, and right coronary arteries of adult rhesus monkeys were isolated and studied both as freshly dispersed and as primary cultures. The short-term primary cultured cells (never passaged) maintain the characteristics of the source tissue for 2 3 weeks, including contraction, relaxation, receptors, and membrane electrical properties. VMCs were dissociated with collagenase and protease enzymes in a potassium glutamate solution (KG) that prevent loading with Na^+, Ca^2+, or Cl^− and results in a high proportion of viable, contracting cells (Self, D. A., et al., J. Vasc. Res. 31:359-366 (1994); Rusch., N. J., et al., Physiology and Pathophysiology of the Heart, 999-1010 (1995)). The cells prepared for culture were seeded at low density in cardiovascular culture solution for mammals, fifth generation (CV5M) on glass coverslips to facilitate selection of individual cells. VMC were used for experiments 7-14 days after attaching to coverslips.
Freshly dispersed or primary cultured VMCs on glass coverslips were placed in a chamber of laminar flow design and observed with a Zeiss Plan Neofluar 25×/0.80 water immersion objective. Ionic solution for mammals version 2 (ISM2) was continuously pumped through the chamber (at 1 ml/minute) to provide continuous equilibration and washout of drugs. After a 15 minutes equilibration period, VMC were loaded for 15 minutes at room temperature with 3 μM fluo 3 (Molecular Probes, Inc.) for sensing Ca^2− and for 10 minutes with […] hypericin (LC Laboratories) for reporting PKC. Individual VMC were stimulated by adding 20 μl of 10 μM serotonin plus 100 nM U46619 over the individual cell. After 15 seconds under no-flow conditions, continuous flow of ISM2 was reinstated and a chamber volume of approximately 300 μl was maintained. Fluorescent images were taken at 1, 2, 5, 10, 15, 20 and 30 minutes after stimulation for Ca^2+ and at 3, 4, 9, 16, 21 and 31 minutes for PKC to evaluate subcellular distribution of these signals, and to determine VMC contraction.
ISM2 contains (in mM): 100 NaCl, 4 NaHCO3, 0.5 NaH2PO4, 4.7 KCl, 1.8 CaCl2, 0.41 […], 50 HEPES (pH 7.37), and 5.5 dextrose, KG solution consists of (in mM); 140 K-glutamate, 16 NaHCO3, 0.5 NaH2PO4, 30 HEPES, and 16.5 dextrose at pH 7.3. CVSM consists of. 4.0 mM L-glutamine, 10 μg/ml ciprofloxacin (Miles Pentex/Bayer Corporation), 50 mM HEPES (pH 7.3), and 16 mM NaHCO3 dissolved in 85% MEM-Earle's'salts and 15% horse serum. Phenol red, known to have estrogenic activity, was omitted from all solutions.
As discussed above, the monkeys were implanted with subdermal sylastic tubing containing estrogen (E) progesterone (P) or MPA. The first step in each of the three groups was to implant sylastic tubing containing E. Two weeks later, either P or MPA were additionally implanted and maintained for another 4 weeks (6 weeks total). In the withdrawal (W) group, the E tube was withdrawn, and no tubes were implanted for the last 4 weeks.

Experiment [4] deals with coronary arteries. As to the kind of experiment: Drug-induced (S+U) coronary vasospasm in ovariectomized monkeys with E2 plus P or MPA implants. Type of experiment: in vivo, rhesus monkeys (Macaca mulatta). How it is done: Twelve rhesus monkeys (Macaca mulatta), aged 8 to 16 years and with weights of 5-7 kg, were ovariectomized at least 3 months prior to beginning of the study and selected randomly for one of two treatments. After documenting the lack of cardiovascular disease or previous exposure to atherogenic diet and after a normal physical examination (including blood chemistry), monkeys received subdermal sylastic implants containing 200 mg of E2. Two weeks later, sylastic implants containing either 400 mg of P or 400 mg of MPA were additionally implanted. All steroids were purchased from Steraloids (Wilton, N.H.). Both estrogen and progestin implants, providing sustained release steroids, remained in place through the catheterization study 6 weeks after beginning the study. Venous blood sample (5 ml) were collected just prior to beginning the study at weekly intervals for measurements of serum levels of E2, P, and MPA. Target levels of 80-160 pg/ml for E2, 4000-8000 pg/ml for P, and 400-800 pg/ml for MPA were based on levels that are effective by reproductive system indices in women and monkeys. Levels were measured in blood serum at catheterization by specific radio-immunoassays.
Angiography was carried out under isoflurane (0.75-1.25%) general anesthesia with 70% O2 and 30% N2O, and body temperature supported with a heating pad. After ketamine sedation (10 mg/kg) and endotracheal tube placement, both femoral arteries were cannulated for simultaneous measurement of systemic blood pressure and coronary catheterization. Intravenous anticoagulation with 1000 units of heparin and fluid replacement with 75-150 ml of lactated Ringer's solution, and if needed 10-50 ml of dextran, to reach a minimum control diastolic blood pressure of 60 mm Hg.
Coronary arteries (left anterior descending or left circumflex) of the monkeys were catheterized and agents injected as described above in Example 1.
Statistical analysis was carried out by Student's t-test (non-paired) or Chi-square, with the p<0.05 level accepted as significant.
All monkeys were treated with estradiol 17β via sylastic implants for the entire treatment period. P or MPA was added during the last 2 weeks as a second sylastic implant, to simulate the luteal phase (P) or hormone replacement therapy (MPA). All steroid implants were left in place, including during angiography. Steroid measurements were made by RIA on serum samples taken just before angiography. Indicates significant differences between P and MPA at p 0.05 (N=6 for each group).

The mark [5] stands for this setting: angiographic example, one MPA monkey.
Setting [6] is: minimum, 5-20 minutes after IC S + U.

“And” between values parts separate entries of the source, which are not always exact repeats. Identical values can stand only once. “Also recorded” adds a separate entry of the source. Like-named read-outs stand apart in the source and are kept apart here.

One may read the EC50 as the concentration needed to bring the measured effect to its halfway point.

Regarding `CC(=O)OCC[N+](C)(C)C` [ACh, acetylcholine], the time to vasodilation in experiment [1] (67 nmol/liter ACh IC, all monkeys) was at most 15 s.

On to `CC[C@H](C)[C@H](NC(=O)[C@H](CC(=O)O)NC(=O)[C@H](CC(C)C)NC(=O)[C@H](Cc1c[nH]cn1)NC(=O)[C@@H]1CSSC[C@H](N)C(=O)N[C@@H](CO)C(=O)N[C@H]2CSSC[C@H](NC(=O)[C@H](CCC(=O)O)NC(=O)[C@H](CCCCN)NC(=O)[C@H](CC(=O)O)NC(=O)[C@H](CCSC)NC(=O)[C@H](CC(C)C)NC(=O)[C@H](CO)NC(=O)[C@H](CO)NC2=O)C(=O)N[C@@H](C(C)C)C(=O)N[C@@H](Cc2ccc(O)cc2)C(=O)N[C@@H](Cc2ccccc2)C(=O)N1)C(=O)N[C@H](C(=O)N[C@@H](Cc1c[nH]c2ccccc12)C(=O)O)[C@@H](C)CC` [Endothelin 1], for which, in experiment [2] (Protocol 2), the Spasms/N was 0/3 and the “ED50 (-log mol/liter)” value is recorded as 8.5 -log mol/liter. Further, in experiment [1] (with 6.7 μmol/liter serotonin), the EC50 is 0.067 nM. Further, in experiment [1] (without serotonin), the EC50 was 0.2 nM.

For `CC(=O)O[C@]1(C(C)=O)CC[C@H]2[C@@H]3C[C@H](C)C4=CC(=O)CC[C@]4(C)[C@H]3CC[C@@]21C` [MPA, medroxyprogesterone acetate], the “whole cell Ca2+ (fluo 3) fluorescence after stimulation” value in experiment [3] (VMC from treated monkeys, 10 μM serotonin plus 100 nM U46619, FIG. 3) was “significantly increased over control averaged over the whole cell at 1 minute and every subsequent time point”. Besides, in experiment [3] (VMC from treated monkeys, 10 μM serotonin plus 100 nM U46619, FIG. 4), the “peripheral-to-central Ca2+ ratio after stimulation” value is “significantly decreased peripheral-to-central Ca^2+ ratio at 10 minutes and all subsequent times”. Further, the “PKC signal after stimulation” value in experiment [3] (VMC from treated monkeys, 10 μM serotonin plus 100 nM U46619, FIG. 5) was “significantly above the 0-min control at 3 minutes and all subsequent time points”. In experiment [3] (VMC from treated monkeys, 10 μM serotonin plus 100 nM U46619, FIG. 6), the “peripheral-to-central PKC ratio after stimulation” value is “decreased significantly”. Also, the “VMC contractions (cell width) after stimulation” value in experiment [3] (VMC from treated monkeys, 10 μM serotonin plus 100 nM U46619, FIG. 7) was “significantly different from 0-min controls at 3 minutes and all subsequent times”. Besides, the “duration of activation by serotonin and U46619” value in experiment [3] (based on comparisons of contractions, protocol limit 30 minutes) is above 30 min. For the same molecule, the “diameter in dilator response to low dose ACh” value in experiment [4] (0.18 μg ACh IC) is given as 1.21±0.19 mm. Moreover, in experiment [4] (E2+MPA treated monkeys), the “number of S+U challenges responded to with vasospasm (mean)” value was found to be 2.7±0.7 and the “number of S+U challenges responded to with vasospasm (range)” value was 1-5. In experiment [4] (S+U IC challenges, E2 implant plus P or MPA implant, N=6 per group), the “Vasospasms (incidence)” value was 6 of 6 and 6/6*. Moreover, the “reduction of minimum (φ) from controls after S+U” value in experiment [4] (S+U stimulation) amounted to 87%. For the same molecule, in experiment [4] (setting [5]), the “constriction after IC S+U” value stood at 92% and the “time constriction was sustained” value was found to be 15 min. In addition, the blood pressure nadir in experiment [4] (angiographic example, one MPA monkey after S+U) is 38/20. In experiment [4] (before S + U), the “Control DBP in mm Hg” value is recorded as 61 ± 5 mm Hg and the “Control Heart rate in bpm” value is listed as 134 ± 26 bpm. The “S + U (φ) minimum” value in experiment [4] (minimum diameter 3 to 5 minutes after IC S + U) is recorded as 0.15±0.04 mm. Besides, in experiment [4] (setting [6]), the “S + U stim DBP in min Hg” value is given as 26 ± 8 min Hg, the “S + U stim SBP in mm Hg” value is on record as 45 ± 11 mm Hg and the “S + U stim heart rate in bpm” value stood at 69 ± 24 bpm. The “Control (φ) in mm” value in experiment [4] (proximal LAD or left circumflex diameter under control conditions, E2+P or E2+MPA group) is 1.15±0.10 mm.

For `CCCCC[C@H](O)/C=C/[C@@H]1[C@@H](C/C=C\CCCC(=O)O)[C@H]2CO[C@@H]1C2` [U46619], the “coronary vasospasm with mechanical injury (5F catheter stretch)” value in experiment [2] (serotonin 67 μmol/liter IC, U46619 67 nmol/liter or 1 nmol/liter, ET1 ≦10 nmol/liter, AII ≦10 μmol/liter) is recorded as “caused another vasospasm; also recorded: Vasospasm was stimulated”. The “EC50 (-log mol/liter)” value in experiment [1] (Protocol 1, estimated actual coronary artery blood concentration based on 15-fold dilution) is recorded as 6.8 -log mol/liter. Also, in experiment [1] (Protocol 1, number of animals with vasospasm / number of animals), the Spasms/N was 0/8. Moreover, the “ED50 (-log mol/liter)” value in experiment [1] (Protocol 1, syringe concentration of the named vasoconstrictor causing 50% reduction of diameter from control, combined stimuli with 100 μmol/liter serotonin) is 5.5 -log mol/liter. Also, the “vasoactivity / constriction of arteries on IC injection of single agent” value in experiment [1] (serotonin 67 nmol/liter to 667 μmol/liter, U46619 6.7 to 2,000 nmol/liter) is “caused constriction of arteries in all 10 monkeys”. Moreover, the “coronary vasospasm on IC injection (no mechanical injury)” value in experiment [1] is on record as “vasospasm could not be found”.

Regarding “Angiotensin II: vasoconstrictor angiotensin-II (DRVYIHPF; Angiotensin-2; UniProt P01019 25-32, looked up)”, the “EC50 (-log mol/liter)” value in experiment [2] (Protocol 2, estimated actual coronary artery blood concentration based on 15-fold dilution) is recorded as 6.8 -log mol/liter. In addition, in experiment [2] (Protocol 2), the Spasms/N is reported as 0/3 and the “ED50 (-log mol/liter)” value is given as 5.5 -log mol/liter. For the same molecule, in experiment [1] (Angiotensin II up to 200 nmol/liter IC), the systemic blood pressure result was “did increase systemic blood pressure”. Besides, the “coronary vasospasm on IC injection (no mechanical injury)” value in experiment [1] is given as “did not cause vasospasm”.

These data come from patent publication US6602487B1, “Methods and tests for producing and for inhibiting coronary artery vasospasms” (Dimera Incorporated, priority 1997, dated 2003).
